{"source": "patent US11298396B2", "about": "“Agent for inhibiting or reducing light sensitivity” (Osaka University, priority 2017, dated 2022)", "molecules": {"B1": {"name": "C-terminal protein (C-terminal 298 residues) of the mouse Klhl18 gene: C-terminal 298 residues of mouse Klhl18 protein, expressed from plasmid pCAG-N-3× FLAG-C-Klhl18; acts as dominant negative (protein)", "chain": "RTRPRCCTSIAGLIYAVGGLNSAGDSLNVVEVFDPIANRWEKCHPMTTARSRVGVAVVNGLLYAIGGYDGQLRLSTVEAYNPETDTWTRVGSMNSKRSAMGTVVLDGQIYVCGGYDGNSSLNSVETYSPETDKWTVVTPMSSNRSAAGVTVFEGRIYVSGGHDGLQIFSSVEHYNHHTATWHPAASMLNKRCRHGAASLGSKMFVCGGYDGSGFLSIAEMYSSVADQWCLIVPMHTRRSRVSLVASCGRLYAVGGYDGQSNLSSVEMYDPETDRWTFMAPMACHEGGVGVGCIPLLTI", "modifications": "left off: small tags and cut ends", "notes": "C-terminal 298 residues of mouse Klhl18 protein, expressed from plasmid pCAG-N-3× FLAG-C-Klhl18; acts as dominant negative"}}, "key": {"Klhl18 protein": {"test_system": "Klhl18 protein", "test": "Inhibition of Klhl18-mediated degradation of Unc119 in transfected HEK293T cells, Western blotting", "assay_type": "cell-based, mouse", "procedure": "Retinal tissue was harvested from one month old Klhl18 KO mice and wild-type (C57BL/6J strain) mice (purchased from Japan SLC) according to the conventional method. The retinal tissue was dissolved in 2× sample buffer (0.1 M Tris-HCl (pH 6.8), 1% SDS, 5% β-mercaptoethanol, 10% glycerol, and 0.02% BPB) and heat-treated at 100° C. for 5 minutes. SDS-PAGE was performed and the separated proteins on the gel were electrically transferred to a PVDF membrane (Merck Millipore) at 12 V for 90 minutes. The PVDF membrane was blocked with blocking solution (5% skim milk and 0.05% Tween 20/TBS) with shaking at room temperature for 1 hour. The PVDF membrane was reacted with a primary antibody diluted in the blocking solution at 4° C. overnight. The primary antibody was anti-Unc119 antibody (mouse monoclonal, a gift from Dr. Haeseleer (University of Washington, USA) (Haeseleer, 2008), 1:10 dilution) or α-Tublin antibody (mouse monoclonal, Sigma, 1:6,000 dilution). After completion of reaction with the primary antibody, the PVDF membrane was washed three times with 0.05% Tween 20/TBS with shaking at room temperature for 10 minutes. The PVDF membrane was reacted with a secondary antibody diluted in the blocking solution at room temperature for 1 hour. The secondary antibody was anti-mouse IgG (H+L) HRP-conjugated antibody (goat polyclonal, Zymed, 1:6,000 dilution). After completion of reaction with the secondary antibody, the PVDF membrane was again washed three times with 0.05% Tween 20/TBS with shaking at room temperature for […]. The PVDF membrane was reacted with chemiluminescent reagent (Chemi-Lumi One (Nacalai Tesque)) or Pierce Western Blotting Substrate Plus (Thermo Fisher Scientific). The membrane was exposed to an X-ray film, and the protein of interest was detected using a film processor.\nThe HEK293T cell line was cultured in DMEM (Wako Pure Chemical Industries) supplemented with antibiotics (penicillin (100 μg/mL)/streptomycin (100 μg/mL)) and 10% FBS at 37° C. under 5% CO2. […]"}, "BALB/c mice [1]": {"test_system": "BALB/c mice", "test": "Light-induced damage in mice, thickness of the photoreceptor layer (toluidine blue staining)", "assay_type": "in vivo, mouse", "conditions": "60 mg/kg subcutaneous; blue light damage for three days; vs DMSO control (FIG. 26)", "procedure": "Retinal sections of wild-type control mice and Klhl18 KO mice with light-induced damage were prepared in the same manner as in Example 2 (2). The mouse retinal sections were used to measure the thickness of the photoreceptor layer in the same manner as in Example 5. Specifically, the sections were washed with PBS and stained with 0.1% toluidine blue (Sigma)/PBS for 1 minute. The sections were washed three times with PBS, and sealed in mounting medium. The sealed specimens were observed under an upright microscope equipped with a differential interference contrast objective lens. The thickness of the photoreceptor layer was determined by measuring the distance from the optic nerve.\nMLN4924 (Chemscene) (60 mg/kg) was subcutaneously injected into the back of 4-weeks-old BALB/c mice (Japan SLC) that were kept in a dark place for 7 hours to be adapted to darkness. Four hours later, the mice were placed in a box with four mirrored walls and a mirrored floor, and exposed to blue LED light. The wavelength of the light was about 450 nm, and the light reaching the mice was at about 7000 lux. After three hours of exposure to the blue light, the mice were kept in the normal environment for 10 hours. This cycle was repeated for three days. […]"}, "BALB/c mice [2]": {"test_system": "BALB/c mice", "test": "Light-induced damage in mice, fluorescence immunostaining of the retina", "assay_type": "in vivo, mouse", "conditions": "60 mg/kg subcutaneous; blue light damage for three days; vs DMSO control (FIG. 25)", "procedure": "Fluorescent immunostaining was performed using the mouse retinal sections. Specifically, the mouse retinal sections prepared in the same manner as in Example 2 (2) were washed twice with PBS, and blocked with blocking buffer (4% Normal donkey serum/0.1% Triton X-100/PBS) at room temperature for 1 hour. The sections were reacted with a primary antibody at 4° C. overnight. The sections were washed three times with PBS, and reacted with a secondary antibody at room temperature for 2 hours. The primary antibody was anti-Rhodopsin antibody (rhodopsin, rabbit polyclonal, Santa Cruz, 1:500 dilution) or anti-S-opsin antibody (S-opsin (blue cone opsin), goat polyclonal, Santa Cruz, 1:500 dilution). The secondary antibody was Alexa Flour 488-conjugated anti-rabbit antibody (Thermo Fisher Scientific, 1:500 dilution) or Cy3 antibody (Jackson ImmunoResearch Laboratories, 1:500 dilution). After completion of reaction with the secondary antibody, the specimens were washed three times with PBS and sealed in mounting medium. All fluorescence images were taken under a confocal laser scanning microscope (LSM 700, Carl Zeiss).\nMLN4924 (Chemscene) (60 mg/kg) was subcutaneously injected into the back of 4-weeks-old BALB/c mice (Japan SLC) that were kept in a dark place for 7 hours to be adapted to darkness. […]"}, "BALB/c mice [3]": {"test_system": "BALB/c mice", "test": "Light-induced damage in mice, electroretinogram (ERG) recording", "assay_type": "in vivo, mouse", "conditions": "60 mg/kg subcutaneous; blue LED about 450 nm, about 7000 lux, 3 hours, cycle repeated for three days; ERG four days after final exposure; vs DMSO control (FIG. 24)", "procedure": "Wild-type or Klhl18 KO mice of postnatal 2 months were light adapted or dark adapted. Light adaptation was performed at a light level of about 1000 lux for 1 hour or longer, and dark adaptation was performed by keeping the mice in a dark room for 4 hours or longer. Anesthesia was performed on dark-adapted or light-adapted mice with intraperitoneal injection of ketamine (100 mg/kg body weight per mouse) and xylazine (10 mg/kg body weight per mouse) in saline. Pupils were dilated with topical administration to the eyes with a mixture of 0.5% tropicamide and 0.5% phenylephrine HCl. ERG responses were measured with LED electrodes that emit a white flash (PuREC; Mayo Corporation). The mouse cornea was brought into contact with the electrodes, and stimulated with the stimulating flash using LED Visual Stimulator (LS-100, Mayo Corporation), and the ERG waves were recorded by TA-100 (Mayo Corporation) (FIGS. 7A and 8A). Strobe light stimulation with four levels of stimulus intensities ranging from −4.0 to 1.0 log cd−s/m^2 (−4.0, −3.0, −1.0 and 1 log cd−s/m^2) were used for the scotopic ERGs to measure the function of rod photoreceptor cells. […] From the wave data, a-waves and b-waves were quantified and expressed as the mean value±standard error. The photopic ERGs were recorded on a rod-suppressing white background of 1.3 log cd/m^2. […]"}}, "note": "Residues, ends and D or L forms follow the SMILES beside them. *: point of attachment. Cbz = O=C(OCc1ccccc1)*", "data": [{"molecule": "CC(C)C[C@@H](C=O)NC(=O)[C@H](CC(C)C)NC(=O)[C@H](CC(C)C)NC(=O)OCc1ccccc1", "note": "[MG-132] (Cbz-Leu-Leu-Leu-aldehyde)", "values": [{"measurement": "degradation of the target protein Unc119 by the full-length Klhl18 protein", "setting": "Klhl18 protein; HEK293T cells, MG-132 final concentration 10 μM, 6 hours, vs 0.1% DMSO (FIG. 11)", "result": "inhibits degradation of the target protein Unc119 by the full-length Klhl18 protein"}]}, {"molecule": "NS(=O)(=O)OC[C@@H]1C[C@@H](n2ccc3c(N[C@H]4CCc5ccccc54)ncnc32)C[C@@H]1O", "note": "[MLN4924]", "values": [{"measurement": "degradation of the target Unc119 protein by the full-length Klhl18 protein", "setting": "Klhl18 protein; HEK293T cells, MLN4924 final concentration 0.3 μM, 6 hours, vs 0.3% DMSO (FIG. 15)", "result": "inhibits degradation of the target Unc119 protein by the full-length Klhl18 protein"}, {"measurement": "thickness of the photoreceptor layer in the retina", "setting": "BALB/c mice [1]", "result": "better maintained as compared with that of the control mice"}, {"measurement": "signal intensities and thickness of cone photoreceptor cells (markers: S-opsin and M-opsin)", "setting": "BALB/c mice [2]", "result": "better retained as compared with those in the control mice"}, {"measurement": "signal intensities and thickness of rod photoreceptor cells (marker: rhodopsin)", "setting": "BALB/c mice [2]", "result": "better retained as compared with those in the control mice"}, {"measurement": "electric amplitudes of the a-waves (photoreceptor cell activity)", "setting": "BALB/c mice [3]", "result": "higher than those in the control mice"}, {"measurement": "electric amplitudes of the b-waves (bipolar cell activity)", "setting": "BALB/c mice [3]", "result": "higher than those in the control mice"}]}, {"molecule": "B1", "values": [{"measurement": "degradation of the target protein Unc119 by the full-length Klhl18 protein", "setting": "Klhl18 protein; HEK293T cells co-transfected with FLAG-Klhl18, FLAG-C-terminal Klhl18 and HA-Unc119 plasmids, anti-HA Western blot (FIG. 10)", "result": "inhibits degradation of the target protein Unc119 by the full-length Klhl18 protein"}]}]}
